In patent US20130065825A1, “Compositions and Methods for Delaying Senescence or Cell Death in Neurons” (NEUROTEZ, INC., priority 2011, published 2013):

Legend:
[1] = system: Total Sirtuins; experiment: SIRT activity assay (Fluor-de-Lys HDAC Fluorimetric Cellular Activity Assay Kit) in lysates of RA-SY5Y cells; type: cell-based, human; details: 6 h
Protocol: (§1) For neuronal differentiation, 1×10^6 SY5Y or IMR-32 cells were grown in neruonal induction medium (NIM), which is consisted of MEM containing 2% FBS supplemented with 10 μM retinoic acid (RA). Cells were incubated in NIM for 6 days, and switched to serum-free NIM prior to treatment and harvesting on day 7.
(§2) Neuronal cells were treated with Leptin (500 ng/ml) in the presence or absence of nicotinamide (5 mM) or compound C (20 μM) for 6 or 18 h, depending on readout, and then harvested by scraping. Preparation of lysates and immunoblotting were performed as described.
Total Sirtuins activity in cell lysates was determined using the Fluro-de-Lys® HDAC Fluorimetric Cellular Activity Assay Kit (Enzo Life Sciences; Plymouth Meeting, Pa.), according to manufacturer's specified guidelines. “SIRT activity” in this assay is defined as nicotinamide-sensitive deacetylase (class III HDAC) activity in cell lysates. […] Neuronal cell lysates were incubated in the presence or absence of 5 mM nicotinamide, and SIRT activity determined by adding the Flour-de-Lys® Substrate for deacetylation followed by exposure to the Fluor-de-Lys® Developer to generate a fluorescent signal for detection using a fluorimeter (Ex. 350-380 nm; Em. 440-460 nm). Normalized SIRT activity in the lysates was measured in units of fluorescence intensity (Fi) and defined as: […]

[2] = system: phosphorylated tau; experiment: Tau phosphorylation in RA-SY5Y cells by immunoblot (pTau181) and ELISA (pTau231, pTau396); type: cell-based, human; details: 6 h; for effect of co-treatment on Leptin's reduction of phospho-tau: Leptin 500 ng/mL + nicotinamide 5 mM or compound C 20 μM, phospho-tau returned to control levels; for Tau396 phosphorylation compared to control: nicotinamide 5 mM or compound C 20 μM, independent of Leptin treatment, ELISA
Protocol: as §1, §2
(§3) Aβ(1-40) levels in cell culture media were determined using the Human β-Amyloid 1-40 ELISA kit (Invitrogen; Carlsbad, Calif.), and phospho- and total tau levels in cell culture lysates were determined using the Human Tau pSer^396, pThr^231 and Total Tau ELISA kits (Invitrogen) according to manufacturer's specific instructions.
The Invitrogen Human Tau (Total) kit is a solid phase sandwich Enzyme Linked-Immuno-Sorbent Assay (ELISA). Samples, including standards of known human Tau content, control specimens, and unknowns, are pipetted into the wells of microtiter strips, which are coated with a monoclonal antibody specific for human Tau. During the first incubation, the human Tau antigen binds to the immobilized (capture) antibody on one site. After washing, a rabbit polyclonal antibody specific for human Tau is added. During the second incubation, this antibody binds to the immobilized human Tau captured during the first incubation. After removal of excess second antibody, a horseradish peroxidase (HRP)-labeled anti-rabbit antibody is added. This binds to the rabbit polyclonal antibody to complete the four-member sandwich. After a third incubation and washing to remove all the excess anti-rabbit HRP, a substrate solution is added, which is acted upon by the bound enzyme to produce color. The intensity of this colored product is directly proportional to the concentration of human Tau present in the original specimen.

[3] = system: Aβ(1-40); experiment: Aβ(1-40) in culture media of SY5Y-APP751 cells by ELISA; type: cell-based, human; details: 18 h; for effect of co-treatment on Leptin's reduction of Aβ(1-40): Leptin 500 ng/mL + nicotinamide 5 mM or compound C 20 μM, Aβ(1-40) returned to vehicle levels
Protocol: To generate SY5Y stably over-expressing amyloid precursor protein (APP), cells were transfected with a mammalian expression vector encoding the 751 amino acid isoform of human APP (APP751-Accession #NM_201413) (Origene Technologies; Rockville, Md.) using the FuGENE HD transfection reagent, according to manufacturer's specific instructions (Promega; Madison, Wis.). Briefly, cells were transiently transfected with APP751 or vehicle for 48 h and then switched into selection medium containing a concentration range of the antibiotic G418 (100-600 μg/mL) to determine the optimal dose for stable selection. Selection media was changed every 3 days to remove non-viable cells. After 3 weeks, 200 μg/mL G418 yielded distinct colonies while all vehicle-transfected cells were non-viable. Cells were maintained in 10% FBS media containing 200 μg/mL G418 for expansion.
as §2, §3
The Human β-Amyloid 1-40 ELISA kit was used for the quantitative determination of human Aβ40 in samples (e.g., tissue culture medium, tissue homogenate, cerebrospinal fluid (CSF), and the like). The assay recognizes both natural and synthetic forms of human Aβ40. The anti-human Aβ40 antibody is capable of selectively detecting Aβ40 and not Aβ42/Aβ43. The Human β-Amyloid 1-40 ELISA kit is a solid phase sandwich Enzyme Linked-Immuno-Sorbent Assay (ELISA). […] This COOH-terminal sequence is created upon cleavage of the analyzed precursor. Bound rabbit antibody then is detected by the use of a horseradish peroxidase (HRP)-labeled anti-rabbit antibody. […]

[4] = system: Total Sirtuins; details: identified by the manufacturer of the kit; cited from earlier work
[5] = system: AMP-Activated Protein Kinase (AMPK); experiment: AMPK activity assay (CycLex AMPK Kinase Assay Kit) in lysates of RA-SY5Y cells; type: cell-based, human
Protocol: as §1, §2
AMP-Activated Protein Kinase (AMPK) activity in cell lysates was determined using the CycLex AMPK Kinase Assay Kit (MBL International; Woburn, Mass.), as described previously. Briefly, the term “relative AMPK activity” or “AMPK activity,” is defined as Compound C-sensitive protein kinase activity in cell lysates. Titration of various Compound C doses identified 10 μM as the dose in which there was no further reduction in kinase activity upon increasing concentration (data not shown). Neuronal cell lysates were incubated in the presence or absence of 10 μM Compound C, and protein kinase activity determined by measuring phosphorylation of the Insulin Receptor Substrate-1 (IRS-1) through immunoassay and conversion of a chromogenic substrate at an absorbance of 450 nm (A450). Normalized AMPK activity in the lysates was defined as: […]

Compound	SIRT activity on co-treatment with Leptin ([1]; Leptin 500 ng/mL + nicotinamide 5 mM, to levels similar to non-treated control)	effect of co-treatment on Leptin's reduction of phospho-tau [2]	Tau396 phosphorylation compared to control [2]	effect of co-treatment on Leptin's reduction of Aβ(1-40) [3]	dose with no further reduction in deacetylase activity upon increasing concentration [4] [mM]	increase in AMPK kinase activity vs cells treated without Leptin ([5]; RA-SY5Y cells, Leptin 500 ng/mL, 6 h, normalized to total protein, n=3, p<0.05)	increase in total SIRT deacetylase activity vs cells treated without Leptin ([1]; Leptin 500 ng/mL, normalized to total protein, n=3, p<0.05)	all examined phospho-tau species (pTau181, pTau231, pTau396) ([2]; Leptin 500 ng/mL, no SIRT or AMPK inhibition, normalized to total tau, n=3)	Aβ(1-40) in culture media ([3]; Leptin 500 ng/mL, no inhibitors, normalized to total protein, n=3)	AMPK activity on co-treatment with Leptin ([5]; RA-SY5Y cells, Leptin 500 ng/mL + compound C 20 μM, 6 h, to levels similar to non-treated control)	dose with no further reduction in kinase activity upon increasing concentration ([5]; titration in cell lysates, data not shown) [µM]
NC(=O)c1cccnc1 [nicotinamide]	significantly (p<0.05) reduced SIRT activity	negated these effects	significantly (p<0.05) increased	reversed these effects	5	–	–	–	–	–	–
Leptin: recombinant human Leptin purchased from Sigma-Aldrich; pleiotropic hormone primarily secreted by adipocytes	–	–	–	–	–	approximately 2 fold	approximately 2.5 fold	significant (p<0.05) reduction	significant (p<0.05) reduction	–	–
c1cc(-c2cnn3cc(-c4ccc(OCCN5CCCCC5)cc4)cnc23)ccn1 [compound C, 6-[4-(2-Piperidin-1-yl-ethoxy)-phenyl]-3-pyridin-4-yl-pyrrazolo[1,5,-α]pyrimidine]	–	negated these effects	significantly (p<0.05) increased	reversed these effects	–	–	–	–	–	significantly (p<0.05) reduced AMPK activity	10
